Here are results for 2 compounds from patent US6626122B2, “Deactivatable biocides in ballast water” (Chevron U.S.A. Inc, priority 2001, dated 2003).

In the test the test system is bacterial inoculum. Description: Evaluation of biocides: inhibition of growth on FT diesel and ALAD diesel. Note: key: −: No Growth; +: Growth (White Unless Otherwise Indicated). The format is cell-based, alkane degrading organisms. The method, then:
The ability of biocides to inhibit growth on a FT diesel and a low aromatics diesel fuel from Example 1 was investigated.
Test Conditions: 90 ml of growth media and 10 ml of either FT diesel or low sulfur (ALAD) diesel was added to 250 ml flasks. […] In addition to the 2 alkynes, glutaraldehyde (glutaric dialdehyde 50%), was tested. The following summarizes the test conditions:
100 ppm inhibitor (on a total test volume basis or 1000 ppm in diesel)
1% inhibitor (on a total test volume basis or 10% in diesel).
After inoculation, the flasks were place on a shaker-table (135 rpm) at room temperature and observed daily.

The mark [1] stands for this setting: FT Diesel + 1 Wt % biocide, Day 0.
Where [2] appears, read: FT Diesel + 1 Wt % biocide, Day 1.
Where [3] appears, read: FT Diesel + 1 Wt % biocide, Day 5.
The mark [4] stands for this setting: FT Diesel + 1 Wt % biocide, Day 7.
Where [5] appears, read: FT Diesel + 1 Wt % biocide, Day 8.
The mark [6] stands for this setting: FT Diesel + 1 Wt % biocide, Day 19.
The mark [7] stands for this setting: FT Diesel + 100 ppm biocide, Day 0.
Setting [8] is: FT Diesel + 100 ppm biocide, Day 1.
The mark [9] stands for this setting: FT Diesel + 100 ppm biocide, Day 5.
[10] abbreviates: FT Diesel + 100 ppm biocide, Day 7.
Where [11] appears, read: FT Diesel + 100 ppm biocide, Day 8.
Setting [12] is: FT Diesel + 100 ppm biocide, Day 19.
The mark [13] stands for this setting: LA Diesel + 1 Wt % biocide, Day 0.
Where [14] appears, read: LA Diesel + 1 Wt % biocide, Day 1.
The mark [15] stands for this setting: LA Diesel + 1 Wt % biocide, Day 5.
Setting [16] is: LA Diesel + 1 Wt % biocide, Day 7.
The mark [17] stands for this setting: LA Diesel + 1 Wt % biocide, Day 8.
The mark [18] stands for this setting: LA Diesel + 1 Wt % biocide, Day 19.
The mark [19] stands for this setting: LA Diesel + 100 ppm biocide, Day 0.
Where [20] appears, read: LA Diesel + 100 ppm biocide, Day 1.
[21] abbreviates: LA Diesel + 100 ppm biocide, Day 5.
Setting [22] is: LA Diesel + 100 ppm biocide, Day 7.
Where [23] appears, read: LA Diesel + 100 ppm biocide, Day 8.
Where [24] appears, read: LA Diesel + 100 ppm biocide, Day 19.

As to `C#CCCCC` [H, 1-hexyne], the “Growth, Test Results on Fischer-Tropsch Diesel Fuel” value runs as follows: under setting [1], “−”; under setting [2], “−”; under setting [3], “−”; under setting [4], “−”; under setting [5], “−”; under setting [6], “−”. Moreover, the “Growth, Test Results on Fischer-Tropsch Diesel Fuel” value under setting [7] is on record as “−”; the “Growth, Test Results on Fischer-Tropsch Diesel Fuel” value under setting [8] is “−”; the “Growth, Test Results on Fischer-Tropsch Diesel Fuel” value under setting [9] was “+”; the “Growth, Test Results on Fischer-Tropsch Diesel Fuel” value under setting [10] is recorded as “+”; the “Growth, Test Results on Fischer-Tropsch Diesel Fuel” value under setting [11] is recorded as “+”; the “Growth, Test Results on Fischer-Tropsch Diesel Fuel” value under setting [12] is “+”. Besides, the “Growth, Test Results on ALAD Diesel Fuel” value under setting [13] is on record as “−”; the “Growth, Test Results on ALAD Diesel Fuel” value under setting [14] was “−”; the “Growth, Test Results on ALAD Diesel Fuel” value under setting [15] is given as “−”; the “Growth, Test Results on ALAD Diesel Fuel” value under setting [16] was “−”; the “Growth, Test Results on ALAD Diesel Fuel” value under setting [17] was “−”; the “Growth, Test Results on ALAD Diesel Fuel” value under setting [18] is “−”. Moreover, the “Growth, Test Results on ALAD Diesel Fuel” value is, setting by setting: under setting [19], “−”; under setting [20], “−”; under setting [21], “+”; under setting [22], “+”; under setting [23], “+”; under setting [24], “+”.
For `C#CCO` [P, Propargyl alcohol], the “Growth, Test Results on Fischer-Tropsch Diesel Fuel” value is, setting by setting: under setting [1], “−”; under setting [2], “−”; under setting [3], “−”; under setting [4], “−”; under setting [5], “−”; under setting [6], “−”. The “Growth, Test Results on Fischer-Tropsch Diesel Fuel” value runs as follows: under setting [7], “−”; under setting [8], “−”; under setting [9], “−”; under setting [10], “+”; under setting [11], “+”; under setting [12], “+”. For the same compound, the “Growth, Test Results on ALAD Diesel Fuel” value runs as follows: under setting [13], “−”; under setting [14], “−”; under setting [15], “−”; under setting [16], “−”; under setting [17], “−”; under setting [18], “−”. The “Growth, Test Results on ALAD Diesel Fuel” value under setting [19] was “−”; the “Growth, Test Results on ALAD Diesel Fuel” value under setting [20] is listed as “−”; the “Growth, Test Results on ALAD Diesel Fuel” value under setting [21] is “+ Yellow”; the “Growth, Test Results on ALAD Diesel Fuel” value under setting [22] was “+ Yellow”; the “Growth, Test Results on ALAD Diesel Fuel” value under setting [23] is “+ Yellow”; the “Growth, Test Results on ALAD Diesel Fuel” value under setting [24] is recorded as “+ Yellow”.
